Key:
Cruzain = molecular target: T1, Cruzain (Trypanosoma cruzi, UniProt P25779); assay: biochemical; assay type: biochemical
T1 construct: made in house
Method: For pH dependence studies, cruzain was tested at 4 nM in 5 µM Z-Phe-Arg-AMC in 0.15 M citrate phosphate buffer at pH 5.5 and pH 8.0 with 5 mM DTT, and 0.01% Triton-X 100. Enzyme was added to wells of a 96-well microtiter plate containing substrate and inhibitor diluted in DMSO (0.5% final concentration), or DMSO control. Final inhibitor concentration ranged from 0.01 µM to 10 µM. Experiments were done in triplicate. Assays were run at 25°C in an automated microtiter plate spectrofluorometer, with robotic delivery of enzyme and readings every 1.52 seconds throughout the assay, before and after enzyme addition.
Inhibitor dilutions which produce simple exponential progress curves over a wide range of k obs, were used to determine kinetic parameters. The value of k obs, the rate constant for loss of enzyme activity, was determined from an equation for pseudo first order dynamics using Prism 4.0 (GraphPad). When k obs varied linearly with inhibitor concentration, k ass was determined by linear regression analysis. If the variation was hyperbolic, indicating saturation inhibition kinetics, k inact and K i were determined from an equation describing a two-step irreversible inhibitor mechanism [k obs = k inact [I]o/([I]o+Ki* (1+[S]o/K M))] and non-linear regression analysis Prism 4.0.[32] All values were corrected for substrate concentration.

[1] = test system: T. cruzi infected J774 macrophages; assay: T. cruzi growth inhibition in infected J774 macrophages (cell survival); assay type: cell-based, Trypanosoma cruzi CA-I/72; details: 10 µM inhibitor every 48 h until Day 27, experiment terminated on Day 47, untreated control 6 days
Method: CA-I/72 T. cruzi parasites were isolated from a chronic Chagasic patient, cloned, and maintained as previously described.[33]
For growth inhibition studies, J774 macrophages cultured in RPMI-1640 medium with 5% heat inactivated fetal calf serum (FCS) were irradiated (9000 rad) to arrest the cell cycle and plated onto 12-well tissue culture plates for 24 h at 37°C. After infection with 10^5 T. cruzi trypomastigotes per well for 2 hours, monolayers were washed with RPMI medium and treated with the inhibitors at 10 µM in RPMI medium (triplicate wells per inhibitor). Inhibitor stocks were made to 10 mM in DMSO and diluted prior to use. All assays include untreated, K11777-treated, and uninfected macrophage controls. Fresh medium with or without inhibitor was replaced every 48 h and inhibitor efficacy was monitored daily. Survival time was defined as the time before the cell monolayer was destroyed by the infection. Under these culture conditions, T. cruzi completed the intracellular cycle in 6 days in untreated controls. […] Macrophages were subsequently cultured in normal medium for up to 40 days to elucidate if the effective inhibitors were trypanocidal (cure host macrophages) or trypanostatic (delay intracellular cycle of the parasite).

Cathepsin C = molecular target: T2, Cathepsin C (Homo sapiens, UniProt P53634); assay: Protease inhibition profiling (Reaction Biology Corp): Cathepsin C; assay type: biochemical
T2 construct: Reaction Biology Corp (screening service)

Cathepsin K = molecular target: T3, Cathepsin K (Homo sapiens, UniProt P43235); assay: Protease inhibition profiling (Reaction Biology Corp): Cathepsin K; assay type: biochemical
T3 construct: Reaction Biology Corp (screening service)
T3 sequence (P43235 115-329): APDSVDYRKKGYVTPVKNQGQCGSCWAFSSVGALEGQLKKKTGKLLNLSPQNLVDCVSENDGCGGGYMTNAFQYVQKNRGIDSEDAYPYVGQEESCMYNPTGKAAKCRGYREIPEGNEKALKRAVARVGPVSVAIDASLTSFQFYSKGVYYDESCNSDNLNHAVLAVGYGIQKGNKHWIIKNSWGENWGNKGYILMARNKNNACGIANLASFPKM

[2] = pH 5.5, citrate phosphate buffer
[3] = pH 8.0, citrate phosphate buffer

T1 sequence (P25779 123-337 limits assumed): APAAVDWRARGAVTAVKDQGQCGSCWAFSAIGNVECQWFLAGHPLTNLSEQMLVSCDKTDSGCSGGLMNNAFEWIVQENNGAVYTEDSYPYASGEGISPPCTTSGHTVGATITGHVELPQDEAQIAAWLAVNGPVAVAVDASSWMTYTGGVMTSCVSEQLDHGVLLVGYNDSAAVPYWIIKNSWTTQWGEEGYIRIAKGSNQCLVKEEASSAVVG
T2 sequence (P53634 25-463, species assumed): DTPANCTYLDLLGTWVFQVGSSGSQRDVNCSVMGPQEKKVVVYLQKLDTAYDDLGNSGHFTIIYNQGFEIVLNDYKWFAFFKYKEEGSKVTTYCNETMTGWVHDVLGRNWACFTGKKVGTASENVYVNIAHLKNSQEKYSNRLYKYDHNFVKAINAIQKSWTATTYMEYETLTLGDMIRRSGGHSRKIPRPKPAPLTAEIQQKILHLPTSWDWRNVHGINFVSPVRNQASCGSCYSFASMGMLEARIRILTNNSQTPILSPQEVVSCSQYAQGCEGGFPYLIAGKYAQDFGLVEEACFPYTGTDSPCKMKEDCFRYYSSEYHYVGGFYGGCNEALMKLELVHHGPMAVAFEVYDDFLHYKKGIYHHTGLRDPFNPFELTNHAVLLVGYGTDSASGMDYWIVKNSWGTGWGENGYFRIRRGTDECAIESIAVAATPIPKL

## CN1CCN(C(=O)N[C@@H](CCCNC(=N)N)C(=O)N[C@H](/C=C/S(=O)(=O)c2ccccc2)CCc2ccccc2)CC1 [WRR-483]
Cruzain; citrate phosphate buffer
  improvement of cruzain IC50 at pH 8.0 than at pH 5.5: ~10 fold
  increase in the second-order rate of inactivation of cruzain, pH 8.0 vs pH 5.5: 4 fold
Cruzain; [2]
  IC50: 70 ± 30 nM
  k inact/K i, cruzain: 14,000±240 s^-1 M^-1
Cruzain; [3]
  IC50: 8 ± 2 nM
  k inact/K i, cruzain: 62,000±350 s^-1 M^-1
[1]
  T. cruzi infected cell survival: 47 days
Cathepsin C
  IC50: 7 ± 0.9 nM
Cathepsin K
  IC50, Cathepsin K: No inhibition

Source: PMC2939063, “In Vitro and In Vivo Studies of the Trypanocidal Properties of WRR-483 against Trypanosoma cruzi” (PLoS Neglected Tropical Diseases, 2010)
